Counter-ions that a name gives are not always drawn. Like-named read-outs stand apart in the source and are kept apart here.
Assays:
S1R [1] = biological target: T1, S1R (Cavia porcellus, UniProt Q60492); experiment: S1R binding affinity of previously published compounds; details: ln of experimental Ki S1R (nM), Table 1
Source text: Table 1 Glide Gscores, calculated Ligand Efficiencies and experimentally determined Ki values of compounds 1–8 employed for the elaboration of the docking model. | column: ln(Ki)

S1R [2] = biological target: T1, S1R; experiment: S1R radioligand binding assay ([3H](+)-pentazocine, guinea pig brain cortex membranes); parameters: The thawed membrane preparation of guinea pig brain cortex; from tissue; host or cells: guinea pig brain (cerebral) cortex membranes
HeLa cells = experiment: Osmotic water permeability (AQP-mediated), stopped-flow light scattering; assay type: cell-based
Protocol: Prompted by these encouraging results, we decided to draw the antioxidant profile of compound 12, since it is well-known that oxidative stress is connected with insurgence and exacerbation of neurodegenerative diseases. In particular, the AQP-mediated antioxidant properties of RC-33 (i.e., 1-[3-(1,1′-biphen)-4-yl]butylpiperidine, our in-house developed selective S1R agonist) and 12 were evaluated in HeLa cells, following the procedures reported in our most recent studies. Briefly, osmotic water permeability was measured by a stopped-flow light scattering method and expressed as percentage of k relative. Compounds RC-33 and 12 were tested at 20 µM whereas curcumin was used as control of the goodness of the cellular assay, since its capability to affect the AQPs permeability was assessed in our previous work. The compounds were initially assessed on non-stressed HeLa cells to evaluate the capability of the compounds to affect the AQPs permeability in absence of an oxidant stimuli. […] Conversely, curcumin directly affect AQPs resulting in a significative permeability reduction (75% of k relative). RC-33, 12 and curcumin were further assessed under oxidative stress conditions induced by heating the cell cultures. […] Thus, to probe the entanglement between S1R, AQP permeability and antioxidant protection, compound 12 was assessed against stressed HeLa cells in presence of NE-100, a well-known and fully characterized S1R antagonist.
Osmotic water permeability was measured in HeLa cells suspension by the stopped-flow light scattering method as previously described.
The antioxidant effect of compound 12 on water permeability HeLa cells were divided into different groups: (1) Controls, cells incubated at room temperature (21 °C); (2) heat-stressed cells, cells subjected to heat-treatment by incubating them in a water thermostatic and shacking bath at 42 °C for 3 h; (3) heat-stressed cells pre-treated, cells heat-stressed in the presence of the compound 12 at 20 µM final concentration (dissolved in methanol). Moreover, to test the possible capacity of the molecules to affect the AQP gating in normal condition, HeLa cells were treated in the presence and in the absence of the compounds by incubating at 21 °C for 3 h.

S2R [3] = biological target: T2, S2R (Rattus norvegicus, UniProt Q5U3Y7); experiment: S2R radioligand binding assay ([3H]-DTG, rat liver membranes); details: (+)-pentazocine to mask S1R
T2 construct: The assay was performed using 150 µg of rat liver homogenate; from tissue; host or cells: rat liver homogenate / membranes
T2 sequence (Q5U3Y7 1-176): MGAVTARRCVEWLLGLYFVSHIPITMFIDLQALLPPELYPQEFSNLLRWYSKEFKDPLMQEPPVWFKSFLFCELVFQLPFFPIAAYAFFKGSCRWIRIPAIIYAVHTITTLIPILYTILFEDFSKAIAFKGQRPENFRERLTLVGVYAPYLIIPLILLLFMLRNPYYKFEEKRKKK

[4] = biological target: T3, GluN2 subunit of NMDA (GluN1a and GluN2B subunits) (Homo sapiens, UniProt Q05586+Q13224); experiment: GluN2 binding assay ([3H]-ifenprodil, membranes of transfected L(tk-) cells)
T3 construct: expressed in transfected cells; host or cells: L(tk-) cells, stably transfected

AChE = AChE (Electrophorus electricus, UniProt O42275); experiment: Inhibition of AChE, modified Ellman's method; assay type: biochemical
Protocol: To test the potential to inhibit AChE, a spectrophotometric procedure was adopted, based on the well-known Ellman’s method. Firstly, the target compound was tested at a concentration of 50 μM and a 72% of inhibition was observed.
AChE inhibitory activity of compound 12 was determined by the modified Ellman’s method. Briefly, a stock solution of tested compound (5.0 mM) was prepared in DMSO and diluted using 0.1 M KH2PO4/K2HPO4 buffer (pH 8.0) to afford a final concentration range between […]. Enzyme solutions were prepared by dissolving lyophilized powder in double-distilled water. […] The reaction was started by addition of […] of the 0.075 M substrate solution (acetylthiocholine iodide) and exactly 2 min after substrate addition, the absorption was measured at 25 °C at 412 nm. In enzyme-free assay systems the non-enzymatic hydrolysis of acetylthiocholine iodide was measured, and the results were employed as blank. […] Each experiment was performed in triplicate, and the mean ± standard deviation was calculated. Data from concentration-inhibition experiments of the inhibitors were calculated by nonlinear regression analysis, using the Excel program.

S1R [5] = biological target: T1, S1R; parameters: method as in PMID 30223122; details: read-out: KiS1R; cited from earlier work
S2R [6] = biological target: S2R; parameters: method as in PMID 30223122; details: read-out: KiS2R; cited from earlier work
[7] = guinea pig cerebral cortex membranes, [3H]-(+)-pentazocine, read-out: Experimental Ki S1R (nM) ± SEM
[8] = ln of experimental Ki S1R (nM), read-out: Experimental Ki S1R (converted)
[9] = heat-stressed HeLa cells (42 °C 3 h), pre-treated at 20 µM
[10] = non-stressed HeLa cells, 21 °C 3 h, 20 µM
[11] = Experimental Ki S1R (nM) ± SEM, guinea pig cerebral cortex membranes, [3H]-(+)-pentazocine
[12] = Experimental ln(Ki), ln of experimental Ki S1R (nM)

T1 sequence (Q60492 whole entry): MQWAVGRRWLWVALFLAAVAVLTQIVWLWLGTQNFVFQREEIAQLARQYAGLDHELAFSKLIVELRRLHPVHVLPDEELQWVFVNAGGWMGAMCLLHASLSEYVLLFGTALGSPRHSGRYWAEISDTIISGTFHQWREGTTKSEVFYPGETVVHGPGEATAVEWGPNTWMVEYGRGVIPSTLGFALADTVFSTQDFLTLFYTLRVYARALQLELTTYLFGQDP
AChE, sequence (O42275 24-633): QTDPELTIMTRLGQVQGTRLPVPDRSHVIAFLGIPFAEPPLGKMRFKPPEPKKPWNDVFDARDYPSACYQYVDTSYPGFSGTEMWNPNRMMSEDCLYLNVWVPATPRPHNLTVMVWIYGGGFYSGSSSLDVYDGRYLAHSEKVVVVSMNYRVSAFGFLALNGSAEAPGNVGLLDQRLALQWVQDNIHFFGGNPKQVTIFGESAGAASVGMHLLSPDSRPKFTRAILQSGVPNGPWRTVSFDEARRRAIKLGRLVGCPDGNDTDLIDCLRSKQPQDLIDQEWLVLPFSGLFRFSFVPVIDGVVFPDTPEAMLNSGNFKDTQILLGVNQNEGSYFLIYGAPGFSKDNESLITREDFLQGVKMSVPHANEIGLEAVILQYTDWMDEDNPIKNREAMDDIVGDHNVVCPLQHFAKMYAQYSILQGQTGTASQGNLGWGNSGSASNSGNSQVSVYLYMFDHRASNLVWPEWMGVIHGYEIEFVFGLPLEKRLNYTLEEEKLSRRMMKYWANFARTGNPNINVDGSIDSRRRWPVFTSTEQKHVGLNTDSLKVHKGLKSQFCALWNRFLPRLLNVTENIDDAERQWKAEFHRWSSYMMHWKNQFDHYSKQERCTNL
T3 sequence (Q13224 27-1484, other chains not shown): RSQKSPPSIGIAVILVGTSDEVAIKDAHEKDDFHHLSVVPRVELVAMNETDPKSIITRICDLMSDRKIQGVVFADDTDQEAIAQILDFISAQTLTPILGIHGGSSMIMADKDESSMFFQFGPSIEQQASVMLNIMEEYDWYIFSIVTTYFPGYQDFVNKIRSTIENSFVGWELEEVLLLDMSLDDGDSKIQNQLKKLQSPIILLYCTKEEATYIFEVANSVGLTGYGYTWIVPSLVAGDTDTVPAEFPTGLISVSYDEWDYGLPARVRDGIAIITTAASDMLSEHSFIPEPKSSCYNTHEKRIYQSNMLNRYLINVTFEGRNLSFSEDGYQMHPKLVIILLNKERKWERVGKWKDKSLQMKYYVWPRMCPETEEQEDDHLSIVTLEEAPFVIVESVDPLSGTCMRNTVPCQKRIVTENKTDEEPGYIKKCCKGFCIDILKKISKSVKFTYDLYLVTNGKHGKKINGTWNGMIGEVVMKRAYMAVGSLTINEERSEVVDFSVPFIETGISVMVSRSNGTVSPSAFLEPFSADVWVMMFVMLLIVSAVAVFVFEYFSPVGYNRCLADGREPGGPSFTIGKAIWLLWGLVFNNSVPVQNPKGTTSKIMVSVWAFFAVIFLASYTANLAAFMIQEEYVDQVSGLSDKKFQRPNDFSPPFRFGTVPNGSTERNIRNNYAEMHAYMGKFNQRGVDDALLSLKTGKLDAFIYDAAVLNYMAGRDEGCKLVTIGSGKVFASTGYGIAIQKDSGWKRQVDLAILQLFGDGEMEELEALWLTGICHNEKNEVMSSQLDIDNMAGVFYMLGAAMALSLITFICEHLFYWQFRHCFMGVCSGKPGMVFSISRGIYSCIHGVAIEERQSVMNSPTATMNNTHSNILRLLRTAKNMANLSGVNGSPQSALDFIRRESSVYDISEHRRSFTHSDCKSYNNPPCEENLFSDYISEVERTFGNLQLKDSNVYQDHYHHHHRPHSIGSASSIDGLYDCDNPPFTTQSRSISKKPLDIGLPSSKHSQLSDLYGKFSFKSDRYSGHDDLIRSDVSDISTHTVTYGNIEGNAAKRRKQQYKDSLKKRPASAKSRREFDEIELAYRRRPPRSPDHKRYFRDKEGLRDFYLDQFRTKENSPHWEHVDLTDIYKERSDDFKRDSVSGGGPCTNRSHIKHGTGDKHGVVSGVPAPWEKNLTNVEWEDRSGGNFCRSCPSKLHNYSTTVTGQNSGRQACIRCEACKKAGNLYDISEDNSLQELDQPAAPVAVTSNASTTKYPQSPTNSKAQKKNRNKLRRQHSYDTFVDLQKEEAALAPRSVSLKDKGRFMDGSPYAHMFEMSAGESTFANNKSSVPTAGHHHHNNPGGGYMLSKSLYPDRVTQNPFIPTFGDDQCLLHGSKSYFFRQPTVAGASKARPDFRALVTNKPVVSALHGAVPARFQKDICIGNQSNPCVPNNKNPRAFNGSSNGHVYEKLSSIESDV

SMILES: O=C(CN1CCC(Cc2ccccc2)CC1)c1ccc2ccccc2c1 [Compound 1]
- ln(Ki) (S1R [1]): 3.296

SMILES: O=C(CCN1CCCCC1)c1ccc(-c2ccccc2)cc1 [Compound 2]
- ln(Ki) (S1R [1]): 2.708

SMILES: O=C(CN1CCCCC1)c1ccc(-c2ccccc2)cc1 (as salt: hydrochloride) [Compound 8, 1-(2-([1,1’-biphenyl]-4-yl)-2-oxoethyl)piperidin-1-ium hydrochloride]
- melting point: 236 to 238 °C

SMILES: O=C(CN1CCCCC1)c1ccc(-c2ccccc2)cc1 [Compound 8, 1-(2-([1,1’-biphenyl]-4-yl)-2-oxoethyl)piperidin-1-ium hydrochloride]
- Ki (S1R [2]; [7]): 132 ± 55 nM
- Ki (S1R [2]; [8]): 132 nM

SMILES: O=C(CN1CCC(Cc2ccccc2)CC1)c1ccc(-c2ccccc2)cc1 [Compound 6]
- ln(Ki) (S1R [1]): 5.829

SMILES: O=C(CN1CCCCC1)c1ccc(OCc2ccccc2)cc1 (as salt: hydrochloride) [Compound 9, 1-(2-(4-(benzyloxy)phenyl)-2-oxoethyl)piperidin-1-ium hydrochloride]
- melting point: 86 to 88 °C

SMILES: O=C(CCCN1CCCCC1)c1ccc(OCc2ccccc2)cc1 [Compound 13, 1-(4-(4-(benzyloxy)phenyl)-4-oxobutyl)piperidin-1-ium hydrochloride]
- Ki (S1R [2]; [7]): 87 ± 28 nM
- Ki (S1R [2]; [8]): 87 nM

SMILES: CCCN(CCC)CCc1ccc(OC)c(OCCc2ccccc2)c1 [NE-100]
- osmotic water permeability, percent of k relative (HeLa cells; [9]): 78 % of k relative

SMILES: O=C(CCN1CCCCC1)c1ccc(OCc2ccccc2)cc1 [Compound 10, 1-(3-(4-(benzyloxy)phenyl)-3-oxopropyl)piperidin-1-ium hydrochloride]
- Ki (S1R [2]; [7]): 25 ± 7 nM
- Ki (S1R [2]; [8]): 25 nM

SMILES: COc1cc(/C=C/C(=O)CC(=O)/C=C/c2ccc(O)c(OC)c2)ccc1O [curcumin]
- osmotic water permeability, percent of k relative (HeLa cells; [9]): not able to protect the AQPs’ permeability properties
- osmotic water permeability, percent of k relative (HeLa cells; [10]): 75 % of k relative

SMILES: O=C(CCN1CCCCC1)c1ccc2ccccc2c1 [Compound 3]
- ln(Ki) (S1R [1]): 0.788

SMILES: O=C(CCCN1CCCCC1)c1ccc2ccccc2c1 [Compound 11, 1-(4-(naphthalen-2-yl)-4-oxobutyl)piperidin-1-ium hydrochloride]
- Ki (S1R [2]; [7]): 4.4 ± 2.4 nM
- Ki (S1R [2]; [8]): 4.4 nM
- Ki (S2R [3]): 50 nM

SMILES: O=C(CN1CCCCC1)c1ccc(OCc2ccccc2)cc1 [Compound 9, 1-(2-(4-(benzyloxy)phenyl)-2-oxoethyl)piperidin-1-ium hydrochloride]
- Ki (S1R [2]; [11]): 48 ± 12 nM
- Ki (S1R [2]; [12]): 48 nM

SMILES: O=C(CCCN1CCCCC1)c1ccc(-c2ccccc2)cc1 [Compound 12, 1-(4-([1,1’-biphenyl]-4-yl)-4-oxobutyl)piperidin-1-ium hydrochloride]
- osmotic water permeability, percent of k relative (HeLa cells; [9]): able to prevent the water permeability reduction
- osmotic water permeability, percent of k relative (HeLa cells; [10]): did not affect the water permeability
- Ki [4]: 200 nM
- Ki (S1R [2]; [11]): 33 ± 14 nM
- Ki (S1R [2]; [12]): 33 nM
- inhibition at 50 µM (AChE; 50 μM): 72%
- IC50 (AChE; Ellman's method): 680 ± 90 nM

SMILES: O=C(CCN1CCOCC1)c1ccc(-c2ccccc2)cc1 [Compound 4]
- ln(Ki) (S1R [1]): 1.065

SMILES: O=C(CCCN1CCCCC1)c1ccc(OCc2ccccc2)cc1 (as salt: hydrochloride) [Compound 13, 1-(4-(4-(benzyloxy)phenyl)-4-oxobutyl)piperidin-1-ium hydrochloride]
- melting point: 188 to 190 °C

SMILES: CC(CCN1CCCCC1)c1ccc(-c2ccccc2)cc1 (stereo not shown) [RC-33, 1-[3-(1,1′-biphen)-4-yl]butylpiperidine]
- osmotic water permeability, percent of k relative (HeLa cells; [9]): able to prevent the water permeability reduction
- osmotic water permeability, percent of k relative (HeLa cells; [10]): comparable
- Ki (S1R [5]): 1.8 ± 0.1 nM
- Ki (S2R [6]): 45 ± 16 nM

SMILES: O=C(CCN1CCOCC1)c1ccc2ccccc2c1 [Compound 5]
- ln(Ki) (S1R [1]): 2.197

— article PMC7589021, “Setup and Validation of a Reliable Docking Protocol for the Development of Neuroprotective Agents by Targeting the Sigma-1 Receptor (S1R)” (International Journal of Molecular Sciences, 2020)
